Literature values in US20090054305A1, “Mixtures of Amylin and Insulin” (Novo Nordisk A/S, priority 2006, published 2009).
Ends that are not written are not given here.

Details: compared to human amylin

Substance | solubility and stability characteristics
^18Arg^25, 28Pro-h-amylin | more desirable solubility and stability characteristics
^25Pro^26Val^28, 29Pro-h-amylin | more desirable solubility and stability characteristics

Details: treated test animals, e.g. provoking marked hyperlactemia followed by hyperglycemia

Substance | amylin activity in vivo
^18Arg^25, 28Pro-h-amylin | amylin activity in vivo
^28Pro-h-amylin | amylin activity in vivo
des-^1Lys-h-amylin (CNTATCATQRLANFLVHSSNNFGAILSSTNVGSNTY; not fully specified (C-terminus, bridges); ends and bridges not checked; UniProt P10997 34-70, looked up, variant K1*) [human amylin analog where the lysine in position 1 is lacking] | amylin activity in vivo
des-^1Lys^18Arg^25, 28Pro-h-amylin | amylin activity in vivo
